In patent US20180273531A1, “PYRIMIDINE COMPOUND AND MEDICAL USE THEREOF” (Japan Tobacco Inc., priority 2004, published 2018):

Columns and labels:
Format in all cases: cell-based
p15 protein = assay: Evaluation of p15 induction activity (Western blotting); conditions: test substance 0.1 μM, 24 hrs, ACHN cells or HT-29 cells, compared to DMSO, n=2
Procedure: ACHN cells or HT-29 cells were cultured in a 6 well plate at 2.5×10^5 cells/1.8 mL/well for 24 hrs, then a test substance (0.1 μM) dissolved in DMSO was added. After 24 hrs, cells were detached using trypsin-EDTA (ethylene diamine tetraacetic acid) and solubilized with NuPAGE LDS sample buffer (Invitrogen). Using an RC DC protein assay kit (BIO-RAD), the protein concentration of the sample was quantitated, and a sample in an amount corresponding to 10 μg of BSA (bovine serum albumin) was analyzed by Western blotting using an anti-p15 antibody. The density of the band stained with the anti-p15 antibody was measured by a densitometer to quantify the amount of p15 protein. As a control, DMSO was used and the test was performed with n=2 and the average protein amount was determined.

[1] = tested on: colorectal cancer cell line HT-29 cells; assay: Growth inhibitory effect against cancer cell lines (3H-thymidine uptake), HT-29; conditions: Homo sapiens, HT-29, inhibition of 3H-thymidine uptake; test substance 18 hrs, then 3H-thymidine 6 hrs; triplicate
Procedure: (§1) Renal cancer cell line ACHN cell or colorectal cancer cell line HT-29 cells were cultured in a 96 well plate at 1.0×10^4 cells/90 μL/well for 24 hrs, then a test substance dissolved in DMSO (dimethyl sulfoxide) was added. After 18 hrs, ^3H-thymidine (0.25 μCi/well) was added and the cells were cultured for 6 hrs. Using a cell harvester, the cells were recovered on a UniFilter-96 GF/B glass filter and the ^3H radioactivity uptaken by the cells was measured by TopCount (Packard). As a control, DMSO was used and the activity of the test substance was expressed in the concentration (IC50) necessary for inhibiting ^3H radioactivity uptaken by the cell to 50% of that of the control group. The measurements were made in triplicate.

[2] = tested on: Renal cancer cell line ACHN cell; assay: Growth inhibitory effect against cancer cell lines (3H-thymidine uptake), ACHN; conditions: Homo sapiens, ACHN
Procedure: as §1

Row | Structure (SMILES) | IC50 [1] [nM] | IC50 [2] [nM] | fold induction at 0.1 µM (p15 protein)
1 | Cn1c(=O)c2c(Nc3ccc(Cl)cc3)cc(=O)n(C)c2n(-c2ccccc2)c1=O [Example 1-35] | – | – | ≥ 1.5
2 | Cn1c(=O)cc(NCC(C)(C)C)c2c(=O)n(-c3ccccc3)c(=O)n(-c3ccccc3)c21 [Example 1-36] | – | – | ≥ 1.5
3 | Cn1c(=O)cc(Nc2ccc(C(=O)O)cc2)c2c(=O)n(-c3ccccc3)c(=O)n(-c3ccccc3)c21 [Example 1-37] | – | – | ≥ 1.5
4 | CCCC(CCC)c1ccc(Nc2cc(=O)n(C)c3c2c(=O)n(-c2ccccc2)c(=O)n3-c2ccccc2)cc1 [Example 1-40] | – | – | ≥ 1.5
5 | Cn1c(=O)cc(Nc2ccc(N)cc2)c2c(=O)n(-c3ccccc3)c(=O)n(-c3ccccc3)c21 [Example 1-46] | – | – | ≥ 1.5
6 | Cc1cc(Cl)ccc1Nc1cc(=O)n(C)c2c1c(=O)n(-c1ccccc1)c(=O)n2-c1ccccc1 [Example 1-53] | – | – | ≥ 1.5
7 | CCNc1ccc(Nc2cc(=O)n(C)c3c2c(=O)n(-c2ccccc2)c(=O)n3-c2ccccc2)cc1 [Example 1-65] | – | – | ≥ 1.5
8 | Cn1c(=O)cc(Nc2ccc(Cl)cc2)c2c(=O)n(-c3ccc(F)cc3)c(=O)n(-c3ccc(F)cc3)c21 [Example 1-79] | – | – | ≥ 1.5
9 | Cn1c(=O)cc(Nc2ccc(Cl)cc2)c2c(=O)n(C3CCCC3)c(=O)n(-c3ccccc3)c21 [Example 1-80] | – | – | ≥ 1.5
10 | CC(C)n1c(=O)c2c(Nc3ccc(Cl)cc3)cc(=O)n(C)c2n(-c2ccccc2)c1=O [Example 1-81] | – | – | ≥ 1.5
11 | Cn1c(=O)cc(Nc2ccc(Br)cc2)c2c(=O)n(C3CCC3)c(=O)n(-c3ccccc3)c21 [Example 1-107] | – | – | ≥ 1.5
12 | Cc1ccccc1-n1c(=O)n(CC(F)(F)F)c(=O)c2c(Nc3ccc(Br)cc3)cc(=O)n(C)c21 [Example 1-108] | – | – | ≥ 1.5
13 | CCn1c(=O)c2c(Nc3ccc(Cl)cc3)cc(=O)n(C)c2n(-c2ccccc2C)c1=O [Example 1-109] | – | – | ≥ 1.5
14 | CCn1c(=O)c2c(Nc3ccc(N(C)C)cc3)cc(=O)n(C)c2n(-c2ccccc2C)c1=O [Example 1-110] | – | – | ≥ 1.5
15 | CCn1c(=O)c2c(Nc3ccc(Br)cc3)cc(=O)n(C)c2n(-c2cccnc2)c1=O [Example 1-131] | – | – | ≥ 1.5
16 | CCNc1ccc(Nc2cc(=O)n(C)c3c2c(=O)n(C2CC2)c(=O)n3-c2ccccc2)cc1 [Example 1-137] | – | – | ≥ 1.5
17 | COc1ccc(Nc2cc(=O)n(C)c3c2c(=O)n(C2CC2)c(=O)n3-c2ccccc2)c(OC)c1 [Example 1-146] | – | – | ≥ 1.5
18 | COc1ccc(Nc2cc(=O)n(C)c3c2c(=O)n(C2CC2)c(=O)n3-c2ccccc2)c(C)c1 [Example 1-154] | – | – | ≥ 1.5
19 | Cc1cc(Nc2cc(=O)n(C)c3c2c(=O)n(C2CC2)c(=O)n3-c2ccccc2)ccc1Br [Example 1-157] | – | – | ≥ 1.5
20 | Cn1c(=O)cc(Nc2ccc(F)cc2F)c2c(=O)n(C3CC3)c(=O)n(-c3ccccc3)c21 [Example 1-162] | – | – | ≥ 1.5
21 | CCn1ccc2cc(Nc3cc(=O)n(C)c4c3c(=O)n(C3CC3)c(=O)n4-c3ccccc3)ccc21 [Example 1-167] | – | – | ≥ 1.5
22 | Cn1c(=O)cc(Nc2ccc(O)cc2)c2c(=O)n(C3CC3)c(=O)n(-c3ccccc3)c21 [Example 1-172] | – | – | ≥ 1.5
23 | Cn1c(=O)cc(Nc2ccccc2F)c2c(=O)n(C3CC3)c(=O)n(-c3ccccc3)c21 [Example 1-173] | – | – | ≥ 1.5

Second part, led by results:

Row | IC50 [1] [nM] | IC50 [2] [nM] | Structure (SMILES) | fold induction at 0.1 µM (p15 protein)
24 | 100 to 1000 | – | CCn1c(=O)c2c(Nc3ccc(Br)cc3)cc(=O)n(C)c2n(-c2ccccc2)c1=O [Example 1-96] | ≥ 1.5
25 | 100 to 1000 | – | CCn1c(=O)c2c(Nc3ccc(Br)cc3)cc(=O)n(C)c2n(-c2ccccc2C)c1=O [Example 1-111] | ≥ 1.5
26 | 100 to 1000 | – | CCn1c(=O)c2c(Nc3ccc(Br)cc3)cc(=O)n(C)c2n(-c2ccccc2F)c1=O [Example 1-116] | ≥ 1.5
27 | 100 to 1000 | – | CCn1c(=O)c2c(Nc3ccc(N(C)C)cc3)cc(=O)n(C)c2n(-c2ccccc2F)c1=O [Example 1-117] | ≥ 1.5
28 | 100 to 1000 | – | Cc1ccc(-n2c(=O)n(C3CC3)c(=O)c3c(Nc4ccc(N(C)C)cc4)cc(=O)n(C)c32)cc1 [Example 1-126] | ≥ 1.5
29 | 100 to 1000 | – | Cc1cccc(-n2c(=O)n(C3CC3)c(=O)c3c(Nc4ccc(N(C)C)cc4)cc(=O)n(C)c32)c1 [Example 1-127] | ≥ 1.5
30 | 100 to 1000 | – | CN(C)c1ccc(Nc2cc(=O)n(C)c3c2c(=O)n(C2CC2)c(=O)n3-c2ccc(F)cc2)cc1 [Example 1-132] | ≥ 1.5
31 | 100 to 1000 | – | CN(C)c1ccc(Nc2cc(=O)n(C)c3c2c(=O)n(C2CC2)c(=O)n3-c2cccc(F)c2)cc1 [Example 1-133] | ≥ 1.5
32 | 100 to 1000 | – | CNc1ccc(Nc2cc(=O)n(C)c3c2c(=O)n(C2CC2)c(=O)n3-c2ccccc2)cc1 [Example 1-136] | ≥ 1.5
33 | 100 to 1000 | – | Cn1ccc2cc(Nc3cc(=O)n(C)c4c3c(=O)n(C3CC3)c(=O)n4-c3ccccc3)ccc21 [Example 1-138] | ≥ 1.5
34 | 100 to 1000 | – | CN(C)c1ccc(Nc2cc(=O)n(C)c3c2c(=O)n(C2CC2)c(=O)n3-c2ccccc2)cc1F [Example 1-143] | ≥ 1.5
35 | 100 to 1000 | – | Cn1c(=O)cc(Nc2ccc(Br)c(F)c2)c2c(=O)n(C3CC3)c(=O)n(-c3ccccc3)c21 [Example 1-151] | ≥ 1.5
36 | 100 to 1000 | – | CC1CC1n1c(=O)c2c(Nc3ccc(Br)cc3)cc(=O)n(C)c2n(-c2ccccc2)c1=O (centres unmarked) [Example 1-153] | ≥ 1.5
37 | 100 to 1000 | – | Cc1cc(Br)ccc1Nc1cc(=O)n(C)c2c1c(=O)n(C1CC1)c(=O)n2-c1ccccc1 [Example 1-156] | ≥ 1.5
38 | 100 to 1000 | – | Cn1c(=O)cc(Nc2ccc(Cl)cc2Cl)c2c(=O)n(C3CC3)c(=O)n(-c3ccccc3)c21 [Example 1-163] | ≥ 1.5
39 | 100 to 1000 | – | Cn1c(=O)cc(Nc2ccc3[nH]ccc3c2)c2c(=O)n(C3CC3)c(=O)n(-c3ccccc3)c21 [Example 1-165] | ≥ 1.5
40 | 10 to 100 | – | COc1ccccc1-n1c(=O)n(C2CC2)c(=O)c2c(Nc3ccc(Br)cc3F)cc(=O)n(C)c21 [Example 1-166] | ≥ 1.5
41 | 10 to 100 | – | Cc1ccc(Nc2cc(=O)n(C)c3c2c(=O)n(C2CC2)c(=O)n3-c2ccccc2)c(F)c1 [Example 1-168] | ≥ 1.5
42 | 100 to 1000 | – | COc1ccc(-n2c(=O)n(C3CC3)c(=O)c3c(Nc4ccc(Br)cc4)cc(=O)n(C)c32)cc1 [Example 1-183] | ≥ 1.5
43 | 10 to 100 | 100 to 1000 | Cn1c(=O)cc(Nc2ccc(Br)cc2F)c2c(=O)n(C3CC3)c(=O)n(-c3cccc(OCCN4CCOCC4)c3)c21 [Example 1-232] | –
44 | 10 to 100 | 100 to 1000 | Cn1c(=O)cc(Nc2ccc(Br)cc2F)c2c(=O)n(C3CC3)c(=O)n(-c3cccc(NS(=O)(=O)CC(F)(F)F)c3)c21 [Example 1-267] | –
45 | 10 to 100 | 100 to 1000 | Cn1c(=O)cc(Nc2ccc(Br)cc2F)c2c(=O)n(C3CC3)c(=O)n(-c3cccc(C(N)=O)c3)c21 [Example 1-270] | –
46 | – | 10 to 100 | CNS(=O)(=O)c1cccc(-n2c(=O)n(C3CC3)c(=O)c3c(Nc4ccc(Br)cc4F)cc(=O)n(C)c32)c1 [Example 1-294] | –
47 | – | 100 to 1000 | Cn1c(=O)cc(Nc2ccc(Br)cc2F)c2c(=O)n(C3CC3)c(=O)n(-c3cccc(NS(=O)(=O)CCN4CCOCC4)c3)c21 [Example 1-339] | –
48 | – | 100 to 1000 | CCc1ccc(Nc2c3c(=O)n(C4CC4)c(=O)n(-c4cccc(NS(C)(=O)=O)c4)c3c(C)c(=O)n2CC)c(F)c1 [Example 4-39] | –
49 | – | 100 to 1000 | CCc1ccc(Nc2c3c(=O)n(C4CC4)c(=O)n(-c4cccc(NC(C)=O)c4)c3c(C)c(=O)n2CC)c(F)c1 [Example 4-47] | –
